# Test results: US11844801B2, “Oral compositions of MK2 pathway inhibitor for treatment of immune conditions” (priority 2020, dated 2023)
# Where two headings read alike, the source gives them in different places.
# Legend:
# IL-1β = test: LPS stimulated IL-1β production in human whole blood; type: cell-based
# Description: Compounds were serially diluted in 100% DMSO (Sigma-Aldrich, D2650) followed by a 50× dilution into DMEM/10% FBS (Gibco, 11965/26140). Vehicle consisted of DMSO at a final assay concentration of 0.1%. Pin tools (V&P Scientific, Inc., VP246) were placed in the wells and the plate was placed at 37° C. with 5% CO2, with gently shaking for five minutes, then pin tools were removed and saved. […] Pin tools were placed in the wells in the same orientation as the previous step and gently shook for five minutes at 37° C. with 5% CO2, then removed. […] The plasma was harvested and assayed for TNF-α, IL-1β, and IL-6 using Meso Scale Discovery Technology V-plex human cytokine kits according to the kit protocol. The kit plates were read using an MSD Sector S 6000 instrument. Calculations to establish cytokine calibration curves and to determine analyte concentrations in the samples were carried out using the MSD DISCOVERY WORKBENCH® analysis software.
# [1] = tested on: p-HSP27, TNF-α, IL-1β, IL-6 and IL-8; test: Ex vivo LPS-stimulated p-HSP27 and cytokines in dosed healthy subjects, summary statements over several analytes; set-up: species or system human; conditions: SAD and MAD cohorts
# Description: Blood samples of 10 mL were collected for PD analysis. For the SAD cohorts, blood was collected before dosing and 1, 12, and 24 hours after dosing. For the MAD cohorts, on day 1 blood was collected before the morning dose and 4 and 12 hours after the morning dose (prior to the evening dose); on day 7, blood was collected before the morning dose and 4 and 12 hours after the morning dose. […] Additional details of the assays for analyzing p-HSP27 and cytokines are included in the Supplementary Information. Pharmacodynamics. PD data analysis was conducted using Microsoft Excel 2010 (Microsoft, Redmond, WA), Meso Scale Discovery Workbench® analysis software (Rockville, MD), and Phoenix WinNonlin, version 8.2.
# [2] = tested on: IP10, IFNγ, IL-6, IL-8 and TNF-α; test: Poly(I:C) (TLR3) stimulated cytokines and chemokines in human whole blood; type: cell-based; conditions: poly(I:C) 100 μg/mL, 24 hours
# Description: Human whole blood assays were performed as described above with the exceptions listed below. […] Compounds were serially diluted in 100% DMSO (Sigma-Aldrich, D2650) followed by a 25× dilution into DMEM/10% FBS (Gibco, 11965/26140). After the one-hour incubation with the compounds or vehicle, 20 μL of poly(I:C) (InvivoGen, HMW, tlrl-pic), in DPBS (Gibco, 14190-136) was added for a final concentration of 100 μg/mL to each well except for the no stimulus wells. After twenty-four hours of incubation with poly(I:C), plasma was harvested and assayed for IP10, IFNγ, IL-6, IL-8 and TNF-α using Meso Scale Discovery Technology V-plex human cytokine kits according to the kit protocol.
# [3] = tested on: regulatory T cells (CD45+ CD3+ CD4+ Foxp3+); test: Murine collagen-induced arthritis model, T regulatory cells in popliteal lymph nodes; type: in vivo, mouse; conditions: 1000 ppm chow from day 18, murine CIA model
# Description: In this model DBA/1 mice (12/group) were immunized with bovine collagen/CFA to induce arthritis. […] At day 21, mice were boosted with bovine collagen/CFA, and at day 35 the study was terminated. Popliteal lymph nodes were dissected from mice, cleaned of any trace fat, mechanically dissociated and filtered through 70 micron cell strainers. Live lymphocytes were counted using a Moxi GO II cell counter (Orflo). One million lymphocytes were plated, treated with Fc block, and stained with antibodies targeting surface receptors (including CD45, CD3, CD4) along with a fixable live/dead dye. Cells were fixed/permeabilized (eBioscience Transcription Factor Staining kit) and stained with anti-Foxp3 antibody. The cells were collected via flow cytometry analysis on an Attune NxT instrument. T-regulatory cells were gated as lymphocyte-sized, live, CD45+ CD3+ CD4+ Foxp3+ cells.
# [4] = Phase 2a RA study: Hand-Wrist MRI RAMRIS and CARLOS; type: in vivo, human; conditions: for Carlos Cartilage Loss, mean / RAMRIS Erosion Score, mean / RAMRIS Osteitis Score, mean / RAMRIS Synovitis Score, mean / Carlos Cartilage Loss, change from baseline, mean / RAMRIS Erosion Score, change from baseline, mean / RAMRIS Osteitis Score, change from baseline, mean / RAMRIS Synovitis Score, change from baseline, mean: n = 15
# [5] = most severe hand, baseline, 50 mg BID arm
# [6] = most severe hand, week 12, 50 mg BID
# [7] = other hand, baseline, 50 mg BID arm
smiles,measurement,setting,value
"Cc1cnc(-c2ccnc(C(C)(C)O)n2)cc1-n1c(C)cc(OCc2ncc(F)cc2F)c(Cl)c1=O (single isomer, unassigned) [ATI-450, 3-chloro-4-((3,5-difluoropyridin-2-yl)methoxy)-2′-(2-(2-hydroxypropan-2-yl)pyrimidin-4-yl)-5′,6-dimethyl-2H-[1,4′-bipyridin]-2-one]",IC50,"IL-1β; Human Whole Blood, LPS, 100 ng/mL, 4 or 24 hr, read-out: IC50, IL-1β",6.1 nM
same,IC50,"IL-1β; human whole blood, LPS 100 ng/mL, read-out: IC50, LPS-stimulated IL-1β",10 to 100 nM
same,"modulation of p-HSP27 and inhibition of production of TNF-α, IL-1β, IL-6, and IL-8",[1],concentration-dependent and dose-dependent modulation
same,IC50,[2],10 to 100 nM
same,number of regulatory T cells,[3],significantly increased the number of regulatory T cells
same,joint destruction and synovitis by MRI,"[4]; 50 mg BID plus MTX, 12 weeks",prevents the progression of joint destruction and provides significant improvement in synovitis
same,"Carlos Cartilage Loss, mean",[4]; [5],7.6
same,"RAMRIS Erosion Score, mean",[4]; [5],13.27
same,"RAMRIS Osteitis Score, mean",[4]; [5],2.93
same,"RAMRIS Synovitis Score, mean",[4]; [5],6.1
same,"Carlos Cartilage Loss, change from baseline, mean",[4]; [6],0.03
same,"Carlos Cartilage Loss, mean",[4]; [6],7.63
same,"RAMRIS Erosion Score, change from baseline, mean",[4]; [6],0.63
same,"RAMRIS Erosion Score, mean",[4]; [6],13.9
same,"RAMRIS Osteitis Score, change from baseline, mean",[4]; [6],0.9
same,"RAMRIS Osteitis Score, mean",[4]; [6],3.83
same,"RAMRIS Synovitis Score, change from baseline, mean",[4]; [6],−0.17
same,"RAMRIS Synovitis Score, mean",[4]; [6],5.93
same,"Carlos Cartilage Loss, mean",[4]; [7],7.45
same,"RAMRIS Erosion Score, mean",[4]; [7],13.3
same,"RAMRIS Osteitis Score, mean",[4]; [7],2.4
same,"RAMRIS Synovitis Score, mean",[4]; [7],4.07
same,"Carlos Cartilage Loss, change from baseline, mean","[4]; other hand, week 12, 50 mg BID",0
same,"Carlos Cartilage Loss, mean","[4]; other hand, week 12, 50 mg BID",7.45
same,"RAMRIS Erosion Score, change from baseline, mean","[4]; other hand, week 12, 50 mg BID",−0.27
same,"RAMRIS Erosion Score, mean","[4]; other hand, week 12, 50 mg BID",13.03
same,"RAMRIS Osteitis Score, change from baseline, mean","[4]; other hand, week 12, 50 mg BID",1
same,"RAMRIS Osteitis Score, mean","[4]; other hand, week 12, 50 mg BID",3.4
same,"RAMRIS Synovitis Score, change from baseline, mean","[4]; other hand, week 12, 50 mg BID",0.33
same,"RAMRIS Synovitis Score, mean","[4]; other hand, week 12, 50 mg BID",4.4
